Results: patent US20080200403A1, “9A-Carbamoyl and Thiocarbamoyl Azalides with Anti-Inflammatory Activity” (GLAXOSMITHKLINE, priority 2005, published 2008)
Like-named read-outs stand apart in the source and are kept apart here.

Experiments:
Type in all cases: cell-based
TNF-α = assay: Inhibition of TNF-α production by stimulated human peripheral blood leukocytes in vitro; conditions: PBL; for inhibition at 10 µM / inhibition at 50 µM: Homo sapiens, Leukocyte, read-out: Percentage of inhibition of TNF-α production
Protocol: (§1) Test substances used in in vitro experiments were dissolved in dimethyl sulfoxide (DMSO) (Kemika, Croatia) at concentrations of 50 mM and 10 mM, and were further diluted to final concentrations of 50 μM and 10 μM in 1 mL Dulbecco's modified Eagle medium (DMEM) supplemented with 1% heat inactivated fetal bovine serum (FBS), 1% L-glutamine, 50 U/ml penicillin, 50 μg/ml streptomycin and 2.5 μg/mL Fungizone (amphotericin B). Media and all media supplements were purchased from Gibco, Australia, except the FBS was purchased from Sigma, USA.
(§2) Peripheral blood leukocytes (PBL) were obtained from venous blood of healthy volunteers by sedimentation on 2% dextran T-500 (Amersham Biosciences, USA) and subsequent centrifugations of leukocyte rich plasma.
(§3) Peripheral blood leukocytes (PBL), isolated as described above, were seeded in a 48-well plate at a concentration of 3 to 5×10^6 cell per well in culture medium consisting of RPMI 1640 medium (Institute of Immunology, Croatia) supplemented with 10% heat-inactivated fetal calf serum (FCS, Biowhittaker, USA), 100 U/ml penicillin (Gibco, Australia), 100 μg/ml streptomycin (Gibco, Australia) and 2 mM L-glutamine (Gibco, Australia), and preincubated with the test compounds for 2 h at 37° C., in an atmosphere of 5% CO2, and 90% humidity. Then, stimuli (Sigma, USA) were added to a final concentration of 2 μg/mL lipopolysaccharide (LPS), 1 μg/mL phorbol 12-myristate 13-acetate (PMA) or 120 μg/mL zymosan. Samples were incubated overnight under conditions described above. At the end of incubation, the supernatants were transferred to eppendorf tubes and centrifuged for 10 min at 1500×g. Concentrations of human TNF-α, IL-1β, IL-6 and IL-8 were determined in cell supernatants by sandwich ELISA, using capture and detection antibodies (R&D Systems, Minneapolis, Minn.) according to the manufacturer's recommendations.
(§4) Inhibition (as percentage) was calculated using the following formula: % inhibition=(1−concentration of cytokines in sample/concentration of cytokines in positive control)×100. The positive control refers to stimulated samples, not treated with substances.

IL-6 = assay: Inhibition of IL-6 production by stimulated human peripheral blood leukocytes in vitro; conditions: PBL; for inhibition at 10 µM / inhibition at 50 µM: Homo sapiens, Leukocyte, read-out: Percentage of inhibition of IL-6 production
Protocol: as §1, §2, §3, §4

IL-1α = assay: Inhibition of IL-1 production by stimulated human peripheral blood leukocytes in vitro; conditions: PBL; for inhibition at 10 µM / inhibition at 50 µM: Homo sapiens, Leukocyte, read-out: Percentage of inhibition of IL-1α production
[1] = tested on: human peripheral blood mononuclear cells (PBMC); assay: Human T-cell proliferation in vitro (3H-thymidine incorporation); conditions: for inhibition at 10 µM / inhibition at 50 µM: Homo sapiens, PBMC, read-out: Percentage of inhibition of proliferation of stimulated PBMC
Protocol: Influence of substances at two different concentrations (50 μM and 10 μM) on cell proliferation of human peripheral blood mononuclear cells (PBMC) was assessed.
Heparinized peripheral blood was obtained from healthy donors, and PBMC were isolated by Histopaque 1077 (Sigma, USA) density centrifugation at 400×g for 30 minutes. 5×10^4 cells/well were cultured for 3 days in the RPMI medium as described above, in the presence (positive control) or absence (negative control) of stimulators [PHA (2.5 μg/mL) (Sigma, USA), or both PMA (10 ng/mL) (Sigma, USA) and ionomycin (500 ng/mL) (Calbiochem, USA)], and in the presence of the test compounds, at 37° C. in an atmosphere of 5% CO2 and 90% humidity. The cells were pulsed with 1 μCi of ^3H-thymidine (Amersham, USA) per well during the last 18 h of the culture, and were harvested on the 96-well filter (Packard Bioscience, USA) using a multiple cell harvester (Packard, USA). The incorporation of ^3H-thymidine in activated cells were measured using TopCount NXT (Packard, USA).
Inhibition (as percentage) was calculated using the following formula: % inhibition=(1−(^3H)thymidine incorporation expressed in counts per minute (cpm) in sample/(^3H)thymidine incorporation expressed in cpm in positive control)×100
where positive control refers to stimulated samples, not treated with substances.

IL-8 = assay: Inhibition of IL-8 production by stimulated human peripheral blood leukocytes in vitro; conditions: PBL; for inhibition at 10 µM / inhibition at 50 µM: Homo sapiens, Leukocyte, read-out: Percentage of inhibition of IL-8 production
Protocol: as §1, §2, §3, §4

human granulocytes = assay: Oxidative burst inhibition assay on granulocytes (luminol); conditions: for % inhibition of Oxidative burst PMA: PMA stimulated granulocytes; for % inhibition of Oxidative burst Zymosan: Zymosan stimulated granulocytes
Protocol: Granulocytes were obtained from heparinized whole blood using density gradient centrifugation. Erythrocytes were sedimented on 3% dextran T-500 (Amersham Pharmacia Biotech AB, Uppsala, Sweden). Leukocytes were centrifuged on Ficoll (Amersham Pharmacia Biotech AB, Uppsala, Sweden) for 35 min at 600 g at 20° C. The pellet of granulocytes was cleared from remaining erythrocytes by a brief hypotonic lysis.
The effect of compounds on oxidative burst was investigated in vitro with oxidative burst assay in human granulocytes, isolated as described above. Assay was done in 96 well plate. Blood was obtained from healthy volunteers (Transfusion Center, Croatia) and human granulocytes were isolated by dextran sedimentation and ficoll extraction method, as described above. In each well 50000 isolated granulocytes were suspended in 100 μL of DMEM. Final concentrations of the tested compounds were 50 and 12.5 μM. Than, 50 μL of luminol (c=0.25 mg/mL) was added. Luminol as a detector of oxidative burst react with superoxide and light is produced as one of the reaction products. Subsequently, 50 μL of stimuli, phorbol-12-myristate acetate (PMA) (c=33 ng/mL) or Zymosan (c=120 μg/mL), were added.

[2] = zymosan stimulated, compound 10 μM
[3] = zymosan stimulated, compound 50 μM
[4] = PMA + ionomycin stimulated, compound 10 μM
[5] = PMA + ionomycin stimulated, compound 50 μM

CC[C@H]1OC(=O)[C@H](C)[C@@H](O)[C@H](C)[C@@H](O[C@@H]2O[C@H](C)C[C@H](N(C)C)[C@H]2O)[C@](C)(O)C[C@@H](C)CN(C(=O)Nc2cccc(C(F)(F)F)c2)[C@H](C)[C@@H](O)[C@]1(C)O [Compound 13]
inhibition at 10 µM (TNF-α; LPS stimulated, compound 10 μM): 0%
inhibition at 50 µM (TNF-α; LPS stimulated, compound 50 μM): 0%
inhibition at 10 µM (TNF-α; PMA stimulated, compound 10 μM): 0%
inhibition at 50 µM (TNF-α; PMA stimulated, compound 50 μM): 0%
inhibition at 10 µM (TNF-α; [2]): 0%
inhibition at 50 µM (TNF-α; [3]): 52%
inhibition at 10 µM (IL-6; LPS stimulated, compound 10 μM): 0%
inhibition at 50 µM (IL-6; LPS stimulated, compound 50 μM): 0%
inhibition at 10 µM (IL-6; PMA stimulated, compound 10 μM): 84%
inhibition at 50 µM (IL-6; PMA stimulated, compound 50 μM): 100%
inhibition at 10 µM (IL-6; [2]): 52%
inhibition at 50 µM (IL-6; [3]): 94%
inhibition at 10 µM (IL-1α; LPS stimulated, compound 10 μM): 0%
inhibition at 50 µM (IL-1α; LPS stimulated, compound 50 μM): 52%
inhibition at 10 µM (IL-1α; PMA stimulated, compound 10 μM): 0%
inhibition at 50 µM (IL-1α; PMA stimulated, compound 50 μM): 32%
inhibition at 10 µM (IL-1α; [2]): 34%
inhibition at 50 µM (IL-1α; [3]): 89%
inhibition at 10 µM ([1]; PHA stimulated, compound 10 μM): 11%
inhibition at 50 µM ([1]; PHA stimulated, compound 50 μM): 42%
inhibition at 10 µM [1, 4]: 21%
inhibition at 50 µM [1, 5]: 43%
inhibition at 10 µM (IL-8; LPS stimulated, compound 10 μM): 0%
inhibition at 50 µM (IL-8; LPS stimulated, compound 50 μM): 0%
inhibition at 10 µM (IL-8; PMA stimulated, compound 10 μM): 0%
inhibition at 50 µM (IL-8; PMA stimulated, compound 50 μM): 25%
inhibition at 10 µM (IL-8; [2]): 62%
inhibition at 50 µM (IL-8; [3]): 0%

CCC1OC(=O)C(C)C(OC2CC(C)(OC)C(O)C(C)O2)C(C)C(OC2OC(C)CC(N(C)C)C2O)C(C)(O)CC(C)CN(C(=S)Nc2ccc(Cl)cc2)C(C)C(O)C1(C)O (centres unmarked) [Compound 2]
Percentage of inhibition of TNF-α production (TNF-α; LPS stimulated, compound 10 μM): 37%
Percentage of inhibition of TNF-α production (TNF-α; LPS stimulated, compound 50 μM): 100%
Percentage of inhibition of TNF-α production (TNF-α; PMA stimulated, compound 10 μM): 60%
Percentage of inhibition of TNF-α production (TNF-α; PMA stimulated, compound 50 μM): 99%
Percentage of inhibition of TNF-α production (TNF-α; [2]): 78%
Percentage of inhibition of TNF-α production (TNF-α; [3]): 98%
% inhibition of Oxidative burst PMA (human granulocytes; compound 12.5 μM): 19%
% inhibition of Oxidative burst PMA (human granulocytes; compound 50 μM): 82%
% inhibition of Oxidative burst Zymosan (human granulocytes; compound 12.5 μM): 24%
% inhibition of Oxidative burst Zymosan (human granulocytes; compound 50 μM): 98%
Percentage of inhibition of IL-6 production (IL-6; LPS stimulated, compound 10 μM): 75%
Percentage of inhibition of IL-6 production (IL-6; LPS stimulated, compound 50 μM): 100%
Percentage of inhibition of IL-6 production (IL-6; PMA stimulated, compound 10 μM): 49%
Percentage of inhibition of IL-6 production (IL-6; PMA stimulated, compound 50 μM): 100%
Percentage of inhibition of IL-6 production (IL-6; [2]): 90%
Percentage of inhibition of IL-6 production (IL-6; [3]): 100%
Percentage of inhibition of IL-1α production (IL-1α; LPS stimulated, compound 10 μM): 77%
Percentage of inhibition of IL-1α production (IL-1α; LPS stimulated, compound 50 μM): 98%
Percentage of inhibition of IL-1α production (IL-1α; PMA stimulated, compound 10 μM): 18%
Percentage of inhibition of IL-1α production (IL-1α; PMA stimulated, compound 50 μM): 97%
Percentage of inhibition of IL-1α production (IL-1α; [2]): 92%
Percentage of inhibition of IL-1α production (IL-1α; [3]): 98%
Percentage of inhibition of proliferation of stimulated PBMC ([1]; PHA stimulated, compound 10 μM): 6%
Percentage of inhibition of proliferation of stimulated PBMC ([1]; PHA stimulated, compound 50 μM): 97%
Percentage of inhibition of proliferation of stimulated PBMC [1, 4]: 35%
Percentage of inhibition of proliferation of stimulated PBMC [1, 5]: 99%
Percentage of inhibition of IL-8 production (IL-8; LPS stimulated, compound 10 μM): 79%
Percentage of inhibition of IL-8 production (IL-8; LPS stimulated, compound 50 μM): 88%
Percentage of inhibition of IL-8 production (IL-8; PMA stimulated, compound 10 μM): 27%
Percentage of inhibition of IL-8 production (IL-8; PMA stimulated, compound 50 μM): 58%
Percentage of inhibition of IL-8 production (IL-8; [2]): 61%
Percentage of inhibition of IL-8 production (IL-8; [3]): 51%

CC[C@H]1OC(=O)[C@H](C)[C@@H](O[C@H]2C[C@@](C)(OC)[C@@H](O)[C@H](C)O2)[C@H](C)[C@@H](O[C@@H]2O[C@H](C)C[C@H](N(C)C)[C@H]2O)[C@](C)(O)C[C@@H](C)CN(C(=S)Nc2cccc(Br)c2)[C@H](C)[C@@H](O)[C@]1(C)O [Compound 6]
inhibition at 10 µM (TNF-α; LPS stimulated, compound 10 μM): 74%
inhibition at 50 µM (TNF-α; LPS stimulated, compound 50 μM): 100%
inhibition at 10 µM (TNF-α; PMA stimulated, compound 10 μM): 73%
inhibition at 50 µM (TNF-α; PMA stimulated, compound 50 μM): 100%
inhibition at 10 µM (TNF-α; [2]): 36%
inhibition at 50 µM (TNF-α; [3]): 98%
inhibition at 10 µM (IL-6; LPS stimulated, compound 10 μM): 59%
inhibition at 50 µM (IL-6; LPS stimulated, compound 50 μM): 100%
inhibition at 10 µM (IL-6; [2]): 6%
inhibition at 50 µM (IL-6; [3]): 100%
inhibition at 10 µM (IL-1α; LPS stimulated, compound 10 μM): 64%
inhibition at 50 µM (IL-1α; LPS stimulated, compound 50 μM): 98%
inhibition at 10 µM (IL-1α; PMA stimulated, compound 10 μM): 79%
inhibition at 50 µM (IL-1α; PMA stimulated, compound 50 μM): 100%
inhibition at 10 µM (IL-1α; [2]): 67%
inhibition at 50 µM (IL-1α; [3]): 89%
inhibition at 10 µM ([1]; PHA stimulated, compound 10 μM): 0%
inhibition at 50 µM ([1]; PHA stimulated, compound 50 μM): 100%
inhibition at 10 µM [1, 4]: 0%
inhibition at 50 µM [1, 5]: 100%
inhibition at 10 µM (IL-8; LPS stimulated, compound 10 μM): 43%
inhibition at 50 µM (IL-8; LPS stimulated, compound 50 μM): 100%
inhibition at 10 µM (IL-8; PMA stimulated, compound 10 μM): 23%
inhibition at 50 µM (IL-8; PMA stimulated, compound 50 μM): 100%
inhibition at 10 µM (IL-8; [2]): 41%
inhibition at 50 µM (IL-8; [3]): 71%
